Results published in patent publication US10947260B2, “Phosphinolactone derivatives and pharmaceutical uses thereof” (INSTITUT NATIONAL DE LA SANTE ET DE LA RECHERCHE MEDICALE …, priority 2016, dated 2021).

Key:
[1] = system: mice treated with Aβ25-35; assay: Spontaneous alternation in the Y-maze, Aβ25-35 amyloid toxicity model; assay type: in vivo; conditions: for active dose (neuroprotective effects): non-transgenic AD model, ICV Aβ25-35 in mice
Experimental: Male mice (RjOrl:SWISS) from Janvier laboratories (Le Genest-Saint-Isle, France), aged 7-9 weeks and weighing 32±2 g were used for this study. The animals were grouped in plastic cages with free access to the […] and water, in a regulated environment (23±1° C., humidity 40-60%, 12 h light/dark cycle).
The compounds were solubilized in physiological saline solution (0.9% NaCl) or in dimethylsulfoxide (DMSO) 10% in the saline solution and administered via intraperitoneal route (IP) in a volume of 100 μl per 20 g body weight.
The amyloid-β[25-35] peptide (Aβ25-35) and control peptide (Sc.Aβ) were obtained from Genepep (Saint-Jean-de-Vedas, France). They were solubilized in injectable distilled water at a concentration of 3 mg/ml and stored at −20° C. Before injection, the peptides were incubated at 37° C. for 4 days, which enabled the Aβ25-35 peptide but not the Sc.Aβ, to form oligomers. They were administered via intracerebroventricular route (ICV). The animals were anesthetized by inhaling 2.5% isoflurane (TEM) and were given 3 μl of peptide solution via direct ICV route (Haley and McCormick's method). For injection a 10 μl Hamilton micro-syringe was used at a flow rate of 1 μl/min.
(§1) The animals were tested for spontaneous alternation performance in a Y-maze, an index of spatial working memory. The Y-maze was in grey PVC. Each arm was 40 cm long, 13 cm high, 3 cm wide at the base and 10 cm wide in the upper part, and converging at an equal angle. Each mouse was placed at one end of an arm and was able to move freely through the maze during an 8-min session. The series of arm entries, including any returns in the same arm were visually analysed. Alternation is defined as being consecutive entries in three different arms. The maximum number of alternations is therefore the total number of arm entries less two, and alternation percentage is calculated as (actual alternations/maximum possible alternations)×100. The parameters comprise the alternation percentage (memory index) and the total number of arm entries (exploratory index).
[…] After one week, the animals were tested for behavioural performance, then sacrificed and the brain dissected for biochemical analyses.
On Day 7, after the injections of 3b and amyloid peptide, the mice were tested for their ability to alternate in the Y-maze, a spatial working memory test. […] The mice were then tested for passive avoidance response, a long-term non-spatial memory test. with training on Day 8 and recall on Day 9 after the injections (FIG. 1c).

APPSwe mice = assay: Spontaneous alternation in Y-maze, transgenic APPSwe mice, chronic treatment; assay type: in vivo; conditions: for alternation deficit of APPSwe animals: 1 mg/kg/d
Experimental: FIG. 8: Spontaneous alternation (a, b) and total number of arm entries (c, d) of APPSwe mice given compound 3b, in the Y-maze, after treatment of one month (a, c) and 2 months (b, d). The animals were given compound 3b (0.7 or 2 mg/kg IP) 3 times per week for 1 or 2 months. N=6-15 per group. ANOVA: F(5.49)=3.84, p<0.01 at (a); F(5.54)=1.54, p>0.05 at (b); F<1 at (c) et (d). *p<0.05, **p<0.01 compared with group (WT+V); #p<0.05 compared with group (APPSwe+V); Dunnett test at (a, b).
FIG. 10: Spontaneous alternation (a, b) and number of arm entries (c, d) for APPSwe mice treated with compound 3c, in the Y-maze, after treatment for 1 month (a, c) or 2 months (b, d). The animals were given compound 3c (1 mg/kg IP) 3 times per week for 1 or 2 months. N=10-13 per group. ANOVA: F(3.45)=3.61, p<0.05 at (a); F(3.38)=6.33, p<0.01 at (b); F<1 at (c) and (d). *p<0.05, ***p<0.001 compared with group WT/V; #p<0.05 compared with group APPSwe/V; Dunnett test at (a, b).
as §1
TG2576 mice, over-expressing the human amyloid precursor protein carrying the Swedish double mutation APPSwe, develop the pathology towards the age of 8-10 months and up until 15-17 months, age at which 95% of the animals show behavioural, biochemical and morphological signs of the disease. Compound 3b was administered under chronic treatment at doses of 0.7 mg/kg/d IP and then 2 mg/kg/d IP. The effect of compound 3c, at a dose of 1 mg/kg/j IP, was also documented.

[2] = system: mice treated with peptide Aβ25-35; assay: In vivo screening of derivatives as neuroprotectors (spontaneous alternation, passive avoidance, ROS level), Aβ25-35 model
Experimental: FIG. 7: Screening of phosphinolactones as neuroprotectors in mice treated with peptide Aβ25-35: (a) spontaneous alternation; (b) passive avoidance step-through latency; (c) Levels of reactive oxygen species in hippocampus. The mice were given compound 3b (0.3, 0.7 mg/kg IP) or a dose of each compound (0.3 mg/kg IP) 20 min before I′Aβ25-35 or the control peptide Sc.Aβ (9 nmol ICV). The animals were tested in the Y-maze on Day 7 after the ICV injections and for passive avoidance on Days 8-9, and then sacrificed. In each graph at (a-c), the 50% protection level compared with the deficit induced by Aβ25-35 is plotted as a dotted line. It is to be noted that at (a), the column represents the median and the error bars represent the deviations 25%-75% (=asymmetric deviations). n=12 at (a, b) and 5-6 at (c). ANOVA on groups 1-4: F(3.63)=7.95, p<0.001 at (b); H=24.1, p<0.0001 at (c); F(3.44)=6.33, p<0.01 at (d). *p<0.05, **p<0.01, ***p<0.001 compared with group (Sc.Aβ+V); #p<0.05, ##p<0.01, ###p<0.001 compared with group (Aβ25-35+V); Dunnett test at (a, c) and Dunn at (b). The values of the groups 5-12 (screened compounds) were analysed by t-test at (a, c) or Mann-Whitney at (b).
From the molecules derived from the synthesis, a panel of 8 derivatives was selected and screened for potential neuroprotective efficacy. The compounds were injected at a dose of 0.3 mg/kg IP, i.e. the maximum non-active dose of 3b and compared with 3b injected at 0.3 and 0.7 mg/kg IP. The compounds were injected […] before the Aß25-35 peptide, and the mice were tested for spontaneous alternation on Day 7, passive avoidance on Days 8 and 9 and the ROS level was measured in the hippocampus (FIG. 7). For each response (spontaneous alternation: FIG. 7a; step-through latency in passive avoidance: FIG. 7b, and DCF fluorescence level: FIG. 7c), a 50% level of the effect between the values of the ScAß and Aß25-35 animals was taken as criterion of efficacy. […] Compound 3c is an isomer at the position of the chlorine atom of 3b. Regarding compound 3n, this has a 5-pyrimidyl group attached to the phosphorus atom, and for compound 3l it is a 4-pyridinyl group.

With `CC1(C)COP(=O)(c2cccc(Cl)c2)C(C)(C)N1` (racemic) [Compound 3b, (±)-2-(3-Chlorophenyl)-2-oxo-3,3,5,5-tetramethyl-[1,4,2]-oxazaphosphinane] the “active dose (neuroprotective effects)” value ([1]; IP) was 0.7 mg/kg, the minimum active dose ([1]; dose-dependent experiments, Aβ25-35 model, IP) was 0.7 mg/kg and the “alternation in the WT animals” value (APPSwe mice; lowest dose (0.7 mg/kg/d), 2 months) was “appears to impact alternation”. For the same compound, the “spontaneous alternation performance of wild-type control animals” value (APPSwe mice; treatment for one month, 0.7 or 2 mg/kg IP) was “does not affect the performance” and the “maximum non-active dose of 3b” value ([2]; IP) was 0.3 mg/kg.

In the case of `CC1(C)COP(=O)(c2ccc(Cl)cc2)C(C)(C)N1` (racemic) [Compound 3c, (±)-2-(4-Chlorophenyl)-2-oxo-3,3,5,5-tetramethyl-[1,4,2]-oxazaphosphinane], the “spontaneous alternation deficit induced by Aβ25-35 (Y-maze)” value ([1]; 0.3 mg/kg IP (range tested 0.03-0.7; only this dose efficient), Day 7) is reported as “significantly prevents spontaneous alternation deficit”, the “active dose (neuroprotective effects)” value ([1]; IP) is reported as 0.3 mg/kg and the “alternation deficit of APPSwe animals” value (APPSwe mice; 1 month) is reported as “attenuated”. For the same compound, the “alternation deficit of APPSwe animals” value (APPSwe mice; 2 months) was “significantly blocked”, the “criterion of efficacy: 50% level of the effect between ScAβ and Aβ25-35 animals (spontaneous alternation, step-through latency, DCF fluorescence)” value ([2]; 0.3 mg/kg IP) was “met the criterion for the 3 parameters” and the “efficacy compared with 3b” value ([2]; Aβ25-35 model) was “as effective at 0.3 mg/kg IP as 3b at 0.7 mg/kg IP”. For the same compound, the “efficiency in the screening of the molecules in the series” value ([2]; Aβ25-35 model) was “highly efficient”.
